Data reported in patent publication US20260022142A1, “MACROCYCLIC IMMUNOMODULATORS” (Bristol-Myers Squibb Company, priority 2022, published 2026).
Bridge positions count the residues as written; N and C are the ends. Square brackets hold non-standard residues; d marks the D form. Peptide text beside a SMILES is read from it. * marks the point of attachment. ξ: configuration not given here. Phe(3-CF3) = N[C@@H](Cc1cccc(C(F)(F)F)c1)C(=O)O; Phe(4-COOH) = N[C@@H](Cc1ccc(C(=O)O)cc1)C(=O)O; Bip = N[C@@H](Cc1ccc(-c2ccccc2)cc1)C(=O)O; NH(CH2)14COOH = O=C(O)CCCCCCCCCCCCCCN*; Phe(3-Me) = Cc1cccc(C[C@H](N)C(=O)O)c1; Phe(4-F) = N[C@@H](Cc1ccc(F)cc1)C(=O)O; Abu(3S-NH2) = C[C@H](N)[C@H](N)C(=O)O; NH(CH2)12COOH = O=C(O)CCCCCCCCCCCCN*; Val(3-OH) = CC(C)(O)[C@H](N)C(=O)O; 4Pal = N[C@@H](Cc1ccncc1)C(=O)O; Cha = N[C@@H](CC1CCCCC1)C(=O)O; Cit = NC(=O)NCCC[C@H](N)C(=O)O; Thr(3ξ) = CC(O)[C@H](N)C(=O)O; PEG4 = NCCOCCOCCOCCOCCC(=O)O; 12Ado = NCCCCCCCCCCCC(=O)O; Carboxymethyl = O=C(O)C*; Orn = NCCC[C@H](N)C(=O)O; Pra = C#CC[C@H](N)C(=O)O; Aun = NCCCCCCCCCCC(=O)O; Dab = NCC[C@H](N)C(=O)O; Dap = NC[C@H](N)C(=O)O; AEEA = NCCOCCOCC(=O)O

biological target: T1, PD-1/PD-L1 interaction (PE-labeled human PD-L1-Ig binding to Jurkat cell line over-expressing human PD-1) (Homo sapiens, UniProt Q15116); assay: Jurkat-PD-1 Cell Binding High-Content Screening Assay (CBA); type: cell-based; conditions: Jurkat cell line over-expressing human PD-1; PE-labeled PD-L1-Ig 20 nM final; read-out: Jurkat hPD1-PDL1 IC50
T1 construct: expressed in transfected cells; host or cells: Jurkat
How it was run: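 Jurkat-hPD-1 cells, DMEM/10% FCS; cpd 2 h 37° C; PE-PD-L1-Ig 20 nM final, 1 h; 4% PFA fix + Hoechst 33342, 3× dPBS wash; high-content imaging read-out.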

T1 sequence (Q15116 25-288): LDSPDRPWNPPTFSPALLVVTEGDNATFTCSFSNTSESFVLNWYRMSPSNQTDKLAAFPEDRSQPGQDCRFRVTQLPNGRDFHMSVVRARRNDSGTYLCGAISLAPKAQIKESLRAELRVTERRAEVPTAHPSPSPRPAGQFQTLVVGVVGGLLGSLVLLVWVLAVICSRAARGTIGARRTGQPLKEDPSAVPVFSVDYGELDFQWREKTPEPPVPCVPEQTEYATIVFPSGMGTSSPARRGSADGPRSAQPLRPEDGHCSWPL

| Structure (SMILES) | IC50 [nM] |
| --- | --- |
| CC(C)C[C@H]1NC(=O)[C@H](CCCN)NC(=O)[C@H](Cc2ccc(O)cc2)NC(=O)[C@H](Cc2ccc(-c3ccccc3)cc2)NC(=O)[C@H](Cc2ccc(O)cc2)NC(=O)[C@H](Cc2c[nH]c3ccccc23)NC(=O)[C@H](CC(=O)O)NC(=O)[C@H](Cc2ccc(OCC(=O)O)cc2)NC(=O)[C@H](CN)NC(=O)CSC[C@@H](C(=O)N[C@@H](CCN)C(=O)NCCOCCOCC(=O)NCCCCCCCCCCC(=O)O)NC(=O)[C@H](CCCCN)NC(=O)[C@H](Cc2ccc(O)cc2)NC(=O)[C@H](CC2CCCCC2)NC(=O)[C@H](CCN)NC1=O [Compound 2503] ({CH2CO}-[Dap]Y(Carboxymethyl)DWY[Bip]Y[Orn][dL][Dab][Cha]YKC[Dab][AEEA][Aun]-OH; thioether N-14) | 39.9 |
| Cc1cccc(C[C@@H]2NC(=O)[C@H](CC(=O)O)NC(=O)[C@H](Cc3ccc(OCC(=O)O)cc3)NC(=O)[C@H](Cc3ccncc3)NC(=O)CSC[C@@H](C(=O)N[C@@H](CCN)C(=O)NCCCCCCCCCCC(=O)O)NC(=O)[C@H]([C@H](C)N)NC(=O)[C@H](C(C)(C)O)NC(=O)[C@H](CC3CCCCC3)NC(=O)[C@H](CCN)NC(=O)[C@@H](CC(C)C)NC(=O)[C@H](CCCN)NC(=O)[C@H](Cc3ccc(OCC(=O)O)cc3)NC(=O)[C@H](Cc3ccc(-c4ccccc4)cc3)NC(=O)[C@H](Cc3ccc(OCC(=O)O)cc3)NC2=O)c1 [Compound 2142] ({CH2CO}-[4Pal]Y(Carboxymethyl)D[Phe(3-Me)]Y(Carboxymethyl)[Bip]Y(Carboxymethyl)[Orn][dL][Dab][Cha][Val(3-OH)][Abu(3S-NH2)]C[Dab][Aun]-OH; thioether N-14) | 9.1 |
| Cc1cccc(C[C@@H]2NC(=O)[C@H](CC(=O)O)NC(=O)[C@H](Cc3ccncc3)NC(=O)[C@H](Cc3ccc(OCC(=O)O)cc3)NC(=O)CSC[C@@H](C(=O)NCCOCCOCC(=O)NCCCCCCCCCCC(=O)O)NC(=O)[C@H]([C@@H](C)O)NC(=O)[C@H](C(C)C)NC(=O)[C@H](CC3CCCCC3)NC(=O)[C@H](CCN)NC(=O)[C@@H](CC(C)C)NC(=O)[C@H](CCCN)NC(=O)[C@H](C(C)C)NC(=O)[C@H](Cc3ccc(-c4ccccc4)cc3)NC(=O)[C@H](C(C)C)NC2=O)c1 [Compound 1162] ({CH2CO}-Y(Carboxymethyl)[4Pal]D[Phe(3-Me)]V[Bip]V[Orn][dL][Dab][Cha]VTC[AEEA][Aun]-OH; thioether N-14) | 20.8 |
| Cc1cccc(C[C@@H]2NC(=O)[C@H](CC(=O)O)NC(=O)[C@H](Cc3ccc(OCC(=O)O)cc3)NC(=O)[C@H](CCCNC(=N)N)NC(=O)CSC[C@@H](C(=O)N[C@H](CC(N)=O)C(=O)NCCCCCCCCCCC(=O)O)NC(=O)[C@H](C(C)O)NC(=O)[C@H](C(C)C)NC(=O)[C@H](CC3CCCCC3)NC(=O)[C@H](CCN)NC(=O)[C@@H](CC(C)C)NC(=O)[C@H](CCCN)NC(=O)[C@H](Cc3ccc(O)cc3)NC(=O)[C@H](Cc3ccc(-c4ccccc4)cc3)NC(=O)[C@H](C(C)C)NC2=O)c1 (stereo partly drawn) [Compound 3452] ({CH2CO}-RY(Carboxymethyl)D[Phe(3-Me)]V[Bip]Y[Orn][dL][Dab][Cha]V[Thr(3ξ)]C[dN][Aun]-OH; thioether N-14) | 25.8 |
| Cc1cccc(C[C@@H]2NC(=O)[C@H](CC(=O)O)NC(=O)[C@H](Cc3ccc(OCC(=O)O)cc3)NC(=O)[C@H](CCCNC(=N)N)NC(=O)CSC[C@@H](C(=O)N[C@@H](CCN)C(=O)NCCCCCCCCCCC(=O)O)NC(=O)[C@H]([C@@H](C)O)NC(=O)[C@H](C(C)C)NC(=O)[C@H](CC3CCCCC3)NC(=O)[C@H](CCN)NC(=O)[C@@H](CC(C)C)NC(=O)[C@H](C)NC(=O)[C@H](C(C)(C)O)NC(=O)[C@H](Cc3ccc(-c4ccccc4)cc3)NC(=O)[C@H](Cc3ccc(OCC(=O)O)cc3)NC2=O)c1 [Compound 2139] ({CH2CO}-RY(Carboxymethyl)D[Phe(3-Me)]Y(Carboxymethyl)[Bip][Val(3-OH)]A[dL][Dab][Cha]VTC[Dab][Aun]-OH; thioether N-14) | 21.1 |
| CC(C)C[C@H]1NC(=O)[C@H](CCCN)NC(=O)[C@H](Cc2ccc(O)cc2)NC(=O)[C@H](Cc2ccc(-c3ccccc3)cc2)NC(=O)[C@H](Cc2ccc(OCC(=O)O)cc2)NC(=O)[C@H](Cc2ccc(F)cc2)NC(=O)[C@H](CC(=O)O)NC(=O)[C@H](Cc2ccc(OCC(=O)O)cc2)NC(=O)[C@H](CN)NC(=O)CSC[C@@H](C(=O)N[C@@H](CCN)C(=O)NCCOCCOCC(=O)NCCCCCCCCCCC(=O)O)NC(=O)[C@H](CCCN)NC(=O)[C@H](C(C)C)NC(=O)[C@H](CC2CCCCC2)NC(=O)[C@H](CCN)NC1=O [Compound 1298] ({CH2CO}-[Dap]Y(Carboxymethyl)D[Phe(4-F)]Y(Carboxymethyl)[Bip]Y[Orn][dL][Dab][Cha]V[Orn]C[Dab][AEEA][Aun]-OH; thioether N-14) | 28.8 |
| C#CC[C@H](NC(=O)COCCOCCNC(=O)[C@@H]1CSCC(=O)N[C@@H](Cc2ccncc2)C(=O)N[C@@H](Cc2ccc(OCC(=O)O)cc2)C(=O)N[C@@H](CC(=O)O)C(=O)N[C@@H](Cc2c[nH]c3ccccc23)C(=O)N[C@@H](C(C)C)C(=O)N[C@@H](Cc2ccc(-c3ccccc3)cc2)C(=O)N[C@@H]([C@@H](C)CC)C(=O)N[C@@H](CCCN)C(=O)N[C@H](CC(C)C)C(=O)N[C@@H](CCN)C(=O)N[C@@H](CC(C)C)C(=O)N[C@@H](C(C)C)C(=O)N[C@@H]([C@@H](C)O)C(=O)N1)C(=O)N[C@@H](Cc1cnc[nH]1)C(=O)NCCCCCCCCCCC(=O)O [Compound 1216] ({CH2CO}-[4Pal]Y(Carboxymethyl)DWV[Bip]I[Orn][dL][Dab]LVTC[AEEA][Pra]H[Aun]-OH; thioether N-14) | 16.5 |
| Cc1cccc(C[C@@H]2NC(=O)[C@H](CC(=O)O)NC(=O)[C@H](Cc3ccc(O)cc3)NC(=O)[C@H](CC(N)=O)NC(=O)CSC[C@@H](C(=O)N[C@@H](CCN)C(=O)NCCOCCOCC(=O)NCCCCCCCCCCC(=O)O)NC(=O)[C@H](CCCN)NC(=O)[C@H](C(C)C)NC(=O)[C@H](CC3CCCCC3)NC(=O)[C@H](CCN)NC(=O)[C@@H](CC(C)C)NC(=O)[C@H](CCCN)NC(=O)[C@H](Cc3ccc(O)cc3)NC(=O)[C@H](Cc3ccc(-c4ccccc4)cc3)NC(=O)[C@H](C(C)C)NC2=O)c1 [Compound 2695] ({CH2CO}-NYD[Phe(3-Me)]V[Bip]Y[Orn][dL][Dab][Cha]V[Orn]C[Dab][AEEA][Aun]-OH; thioether N-14) | 5.1 |

More lines, now with the values ahead:

| IC50 [nM] | Structure (SMILES) |
| --- | --- |
| 70.5 | CC(C)C[C@@H]1NC(=O)CSC[C@@H](C(=O)N[C@@H](CCN)C(=O)NCCCCCCCCCCCCC(=O)O)NC(=O)[C@H](Cc2cnc[nH]2)NC(=O)[C@H](C(C)(C)O)NC(=O)[C@H](CC2CCCCC2)NC(=O)[C@H](CCN)NC(=O)[C@@H](CC(C)C)NC(=O)[C@H](CCCN)NC(=O)[C@H](Cc2ccc(OCC(=O)O)cc2)NC(=O)[C@H](Cc2ccc(-c3ccccc3)cc2)NC(=O)[C@H](Cc2ccc(OCC(=O)O)cc2)NC(=O)[C@H](Cc2cccc(C(F)(F)F)c2)NC(=O)[C@H](CC(=O)O)NC(=O)[C@H](Cc2ccc(OCC(=O)O)cc2)NC1=O [Compound 3873] ({CH2CO}-LY(Carboxymethyl)D[Phe(3-CF3)]Y(Carboxymethyl)[Bip]Y(Carboxymethyl)[Orn][dL][Dab][Cha][Val(3-OH)]HC[Dab]-{NH(CH2)12COOH}; thioether N-14) |
| 15.7 | Cc1cccc(C[C@@H]2NC(=O)[C@H](CC(=O)O)NC(=O)[C@H](Cc3ccc(C(=O)O)cc3)NC(=O)[C@H](CC(C)C)NC(=O)CSC[C@@H](C(=O)N[C@@H](CCN)C(=O)NCCOCCOCCOCCOCCC(=O)NCCCCCCCCCCCCCCC(=O)O)NC(=O)[C@H](CCC(=O)O)NC(=O)[C@H](C(C)C)NC(=O)[C@H](CC3CCCCC3)NC(=O)[C@H](CCN)NC(=O)[C@@H](CC(C)C)NC(=O)[C@H](CCCN)NC(=O)[C@H](Cc3ccc(C(=O)O)cc3)NC(=O)[C@H](Cc3ccc(-c4ccccc4)cc3)NC(=O)[C@H](Cc3ccc(C(=O)O)cc3)NC2=O)c1 [Compound 3909] ({CH2CO}-L[Phe(4-COOH)]D[Phe(3-Me)][Phe(4-COOH)][Bip][Phe(4-COOH)][Orn][dL][Dab][Cha]VEC[Dab][PEG4]-{NH(CH2)14COOH}; thioether N-14) |
| 434 | CC(C)C[C@H]1NC(=O)[C@H](CCCN)NC(=O)[C@H](Cc2ccc(C(=O)O)cc2)NC(=O)[C@H](Cc2ccc(-c3ccccc3)cc2)NC(=O)[C@H](Cc2ccc(C(=O)O)cc2)NC(=O)[C@H](Cc2cccc(C(F)(F)F)c2)NC(=O)[C@H](CC(=O)O)NC(=O)[C@H](Cc2ccc(OCC(=O)O)cc2)NC(=O)[C@H](C(C)C)NC(=O)CSC[C@@H](C(=O)N[C@@H](CCN)C(=O)NCCOCCOCC(=O)N[C@@H](CCC(=O)O)C(=O)N[C@@H](CCC(=O)NCCCCCCCCCCCCCCC(=O)O)C(=O)O)NC(=O)[C@H](CC(=O)O)NC(=O)[C@H](C(C)(C)O)NC(=O)[C@H](CC2CCCCC2)NC(=O)[C@H](CCN)NC1=O [Compound 3890] ({CH2CO}-VY(Carboxymethyl)D[Phe(3-CF3)][Phe(4-COOH)][Bip][Phe(4-COOH)][Orn][dL][Dab][Cha][Val(3-OH)]DC[Dab][AEEA]EE(NH(CH2)14COOH)-OH; thioether N-14) |
| 37 | Cc1cccc(C[C@@H]2NC(=O)[C@H](CC(=O)O)NC(=O)[C@H](Cc3ccc(OCC(=O)O)cc3)NC(=O)[C@H](CCCNC(=N)N)NC(=O)CSC[C@@H](C(=O)N[C@@H](CCCCN)C(=O)N[C@@H](CO)C(=O)NCCCCCCCCCCCC(=O)O)NC(=O)[C@H](C(C)O)NC(=O)[C@H](C(C)C)NC(=O)[C@H](CC3CCCCC3)NC(=O)[C@H](CCN)NC(=O)[C@@H](CC(C)C)NC(=O)[C@H](CCCN)NC(=O)[C@H](CCCNC(N)=O)NC(=O)[C@H](Cc3ccc(-c4ccccc4)cc3)NC(=O)[C@H](C(C)C)NC2=O)c1 (stereo partly drawn) [Compound 3549] ({CH2CO}-RY(Carboxymethyl)D[Phe(3-Me)]V[Bip][Cit][Orn][dL][Dab][Cha]V[Thr(3ξ)]CKS[12Ado]-OH; thioether N-14) |
